These results are taken from patent US20180280349A1, “METHODS OF TREATING CYSTIC FIBROSIS IN PATIENTS WITH RESIDUAL FUNCTION MUTATIONS” (Vertex Pharmaceuticals Incorporated, priority 2017, published 2018).

The test system of assay [1] is cystic fibrosis patients with splice and missense mutations. Put plainly: Clinical trial in 248 cystic fibrosis patients with splice and missense (residual function) mutations: placebo, Compound II alone, Compound I and Compound II. Type of assay: in vivo, human. The settings on record: 100 mg Compound I every 24 hours, 150 mg Compound II every 12 hours. Here is the method:
A clinical trial was conducted with 248 cystic fibrosis patients with splice and missense mutations. Mutations were selected for the study based on the clinical phenotype (pancreatic sufficiency), biomarker data (sweat chloride), and in vitro responsiveness to tezacaftor/ivacaftor. The patients were assigned to one of three treatment groups: placebo, Compound II alone, and Compound I and Compound II. […] As shown in.

The test system of assay [2] is cystic fibrosis patients heterozygous for the F508del mutation and a CFTR residual function mutation. Put plainly: Second clinical trial: eight-week, randomized, double-blind, ivacaftor-controlled, parallel-group study in 150 CF patients. The settings on record: active comparator treatment period. The format is in vivo, human. The procedure:
A second clinical trial was conducted with 150 cystic fibrosis patients aged 12 years and older Who were heterozygous for the F508del mutation and a CFTR residual function mutation. This trial was an eight-week, randomized, double-blind, ivacaftor-controlled, parallel-group study in CF patients. Patients were randomized 1:1 to receive tezacaftor/ivacaftor or ivacaftor following a four-week run in of ivacaftor. The mean ppFEV1 at baseline was 64.3%. The treatment difference between tezacaftor/ivacaftor and ivacaftor-treated patients for absolute change in ppFEV1 (primary endpoint) through Week 8 in the active comparator treatment period was 0.3 percentage points.
Results for tezacaftor/ivacaftor- and ivacaftor-treated patients were similar for absolute change in ppFEV1, relative change in ppFEV1 and CFQ-R Respiratory Domain Score. In the active comparator treatment period, the mean absolute change in ppFEV 1 was 0.5% in the tezacaftor/ivacaftor group and 0.2% in the ivacaftor group; the mean relative change in ppFEV1 was 1.3% in the tezacaftor/ivacaftor group and 0.5% in the ivacaftor group; and the mean absolute change in the pooled CFQ-R respiratory domain score was 0.7 points in the tezacaftor/ivacaftor group and −2.1 points in the ivacaftor group. There was a reduction in sweat chloride in tezacaftor/ivacaftor-treated patients compared to the ivacaftor group (−5.8 mmol/L).

SMILES strings stand for the structures.

For the compound `CC(C)(C)c1cc(C(C)(C)C)c(NC(=O)c2c[nH]c3ccccc3c2=O)cc1O` [Compound II, N-(2,4-di-tert-butyl-5-hydroxyphenyl)-4-oxo-1,4-dihydroquinoline-3-carboxamide], the “increase in CFQ-R score” value in assay [1] (after 8 weeks of treatment) was 9.7 points. The “increase in ppFEV1 (percent predicted forced expiratory volume in one second)” value in assay [1] (average change from baseline after 4 and 8 weeks of treatment) is on record as 4.7 percentage points. Further, in assay [2], the “mean absolute change in the pooled CFQ-R respiratory domain score” value is −2.1 points and the “mean relative change in ppFEV1” value is 0.5%. Also, the “mean absolute change in ppFEV1” value in assay [2] (after four-week run in of ivacaftor) came to 0.2%.
